What is called MIC is the lowest concentration that inhibits growth of the organism.

In brackets after ≈: the same amount, converted by molar mass.

Experimental findings from patent publication US8748461B2, “Metalloenzyme inhibitor compounds” (Viamet Pharmaceuticals, Inc., priority 2011, dated 2014) are described below.

Experiment [1] deals with Septoria tritici (ATCC 26517). The experiment can be described thus: Minimum Inhibitory Concentration (MIC) vs. Septoria tritici. It counts as cell-based. The conditions noted are these: Zymoseptoria tritici, ATCC26517, 168 h; 50% reduction in growth of S. tritici; 22° C., seven days; read-out: Septoria Rating (MIC). Summed up: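 Growth inhibition of S. tritici by CLSI-based filamentous-fungus microdilution, 2-fold series 16 to 0.016 μg/mL in RPMI-1640/MOPS with 2% DMSO. Inoculum approximately 5×10^4 cfu/mL; plates incubated 22° C, seven days, dark, unshaken.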

Experiment [2] deals with Puccinia recondita tritici = Puccinia triticina. The experiment can be described thus: Fungicidal activity vs. leaf rust on wheat plants. The conditions noted are these: 50 ppm spray on wheat (Yuma), inoculated the following day, evaluated 7-9 days later; read-out: Puccinia Rating (% Disease Control @ 50 ppm). It counts as in vivo. The text has this: D. Evaluation of Fungicidal Activity Vs. Leaf Rust (Causal Agent Puccinia recondita Tritici=Puccinia triticina; Bayer code PUCCRT). […] Each pot contained 3-8 seedlings. These plants were sprayed until wet with the formulated test compounds. The compounds were formulated at 50 ppm in 10 vol. % acetone plus 90 vol. % Triton X water (deionized water 99.99 wt %+0.01 wt % Triton X100), giving a “formulated test compound.” Formulated test compounds were applied to plants using a turn table sprayer fitted with two opposing air atomization nozzles which delivered approximately 1500 L/ha of spray volume. On the following day, the leaves were inoculated with an aqueous spore suspension of Puccinia recondita tritici and the plants were kept in high humidity overnight to permit spores to germinate and infect the leaf. The plants were then transferred to a greenhouse until disease developed on untreated control plants. Disease severity was evaluated 7-9 days later, depending on the speed of disease development. In each case of Table 3, the Puccinia rating scale is as follows: […]

Consider `N#Cc1ccc(Oc2ccc(C(F)(F)C(O)(Cn3cnnn3)c3ccc(F)cc3F)nc2)c(F)c1` (centres unmarked) [Compound 89, 4-((6-(2-(2,4-Difluorophenyl)-1,1-difluoro-2-hydroxy-3-(1H-tetrazol-1-yl)propyl)pyridin-3-yl)oxy)-3-fluorobenzonitrile], for which, in experiment [1], the MIC is at most 0.5 µg/mL. Further, in experiment [2], the pest or weed control at 50 ppm is 80 to 100%.
`CC(C)Oc1ccc(C(F)(F)C(O)(Cn2cnnn2)c2ccc(F)cc2F)nc1` (centres unmarked) [Compound 42, 2-(2,4-Difluorophenyl)-1,1-difluoro-1-(5-isopropoxypyridin-2-yl)-3-(1H-tetrazol-1-yl)propan-2-ol]: the MIC in experiment [1] was 0.5 to 1.5 µg/mL (≈ 1.22 to 3.65 µM). In addition, the pest or weed control at 50 ppm in experiment [2] lay in the range of 80 to 100%.
For `OC(Cn1cncn1)(c1ccc(F)cc1F)C(F)(F)c1ccc(OCc2cccc(F)c2F)cn1` (centres unmarked) [Compound 45, 1-(5-((2,3-Difluorobenzyl)oxy)pyridin-2-yl)-2-(2,4-difluorophenyl)-1,1-difluoro-3-(1H-1,2,4-triazol-1-yl)propan-2-ol], in experiment [1], the MIC is at most 0.5 µg/mL. Besides, the pest or weed control at 50 ppm in experiment [2] was 80 to 100%.
As for `OC(Cn1cnnn1)(c1ccc(F)cc1F)C(F)(F)c1ccc(Oc2ccc(C(F)(F)F)cc2)cn1` (centres unmarked) [Compound 75, 2-(2,4-Difluorophenyl)-1,1-difluoro-3-(1H-tetrazol-1-yl)-1-(5-(4-(trifluoromethyl)phenoxy)pyridin-2-yl)propan-2-ol], the MIC in experiment [1] was at most 0.5 µg/mL. Moreover, the pest or weed control at 50 ppm in experiment [2] fell in the range of 80 to 100%.
The matching figures for `N#Cc1ccc(CSc2ccc(C(F)(F)C(O)(Cn3cnnn3)c3ccc(F)cc3F)nc2)c(F)c1` (centres unmarked) [Compound 15, 4-(((6-(2-(2,4-Difluorophenyl)-1,1-difluoro-2-hydroxy-3-(1H-tetrazol-1-yl)propyl)pyridin-3-yl)thio)methyl)-3-fluorobenzonitrile]: at most 0.5 µg/mL and 40 to 59%.
As for `OC(Cn1cnnn1)(c1ccc(F)cc1F)C(F)(F)c1ccc(OCc2ccccn2)cn1` (centres unmarked) [Compound 37, 2-(2,4-Difluorophenyl)-1,1-difluoro-1-(5-(pyridin-2-ylmethoxy)pyridin-2-yl)-3-(1H-tetrazol-1-yl)propan-2-ol], the MIC in experiment [1] was 0.5 to 1.5 µg/mL (≈ 1.09 to 3.26 µM). Moreover, in experiment [2], the pest or weed control at 50 ppm was in the range of 80 to 100%.
As to `OC(Cn1cnnn1)(c1ccc(F)cc1F)C(F)(F)c1ccc(Oc2ncccn2)cn1` (centres unmarked) [Compound 97, 2-(2,4-difluorophenyl)-1,1-difluoro-1-(5-(pyrimidin-2-yloxy)pyridin-2-yl)-3-(1H-tetrazol-1-yl)propan-2-ol], in experiment [1], the MIC was 0.5 to 1.5 µg/mL (≈ 1.12 to 3.35 µM). The pest or weed control at 50 ppm in experiment [2] lay in the range of 80 to 100%.
Take `N#Cc1ccc(COc2ccc(C(F)(F)C(O)(Cn3cnnn3)c3ccc(F)cc3F)nc2)c(F)c1` (centres unmarked) [Compound 57, 4-(((6-(2-(2,4-Difluorophenyl)-1,1-difluoro-2-hydroxy-3-(1H-tetrazol-1-yl)propyl)pyridin-3-yl)oxy)methyl)-3-fluorobenzonitrile]: the MIC in experiment [1] was at most 0.5 µg/mL. Besides, the pest or weed control at 50 ppm in experiment [2] is 80 to 100%.
The matching figures for `N#Cc1ccc(COc2ccc(C(F)(F)C(O)(Cn3ncnn3)c3ccc(F)cc3F)nc2)cc1` (centres unmarked) [Compound 83, 4-(((6-(2-(2,4-Difluorophenyl)-1,1-difluoro-2-hydroxy-3-(2H-tetrazol-2-yl)propyl)pyridin-3-yl)oxy)methyl)benzonitrile]: 1.5 to 4 µg/mL (≈ 3.1 to 8.26 µM) and 40 to 59%.
On to `OC(Cn1cnnn1)(c1ccc(F)cc1F)C(F)(F)c1ccc(OCc2ccc(F)c(F)c2)cn1` (centres unmarked) [Compound 28, 1-(5-((3,4-Difluorobenzyl)oxy)pyridin-2-yl)-2-(2,4-difluorophenyl)-1,1-difluoro-3-(1H-tetrazol-1-yl)propan-2-ol], for which the MIC in experiment [1] is at most 0.5 µg/mL. For the same compound, the pest or weed control at 50 ppm in experiment [2] fell in the range of 80 to 100%.
Consider `OC(Cn1cnnn1)(c1ccc(F)cc1F)C(F)(F)c1ccc(OCc2ccc(OC(F)(F)F)cc2)cn1` (centres unmarked) [Compound 21, 2-(2,4-Difluorophenyl)-1,1-difluoro-3-(1H-tetrazol-1-yl)-1-(5-((4-(trifluoromethoxy)benzyl)oxy)pyridin-2-yl)propan-2-ol], for which the MIC in experiment [1] is at most 0.5 µg/mL. In experiment [2], the pest or weed control at 50 ppm was in the range of 80 to 100%.
Consider `N#Cc1ccc(COc2ccc(C(F)(F)C(O)(Cn3cnnn3)c3ccc(F)cc3F)nc2)cc1F` (centres unmarked) [Compound 10, 4-(((6-(2-(2,4-Difluorophenyl)-1,1-difluoro-2-hydroxy-3-(1H-tetrazol-1-yl)propyl)pyridin-3-yl)oxy)methyl)-2-fluorobenzonitrile], for which the minimal inhibitory concentration (MIC) in experiment [1] is at most 0.5 µg/mL. The pest or weed control at 50 ppm in experiment [2] fell in the range of 80 to 100%.
With `COc1cccc(Oc2ccc(C(F)(F)C(O)(Cn3cnnn3)c3ccc(F)cc3F)nc2)c1` (centres unmarked) [Compound 85, 2-(2,4-Difluorophenyl)-1,1-difluoro-1-(5-(3-methoxyphenoxy)pyridin-2-yl)-3-(1H-tetrazol-1-yl)propan-2-ol], the MIC in experiment [1] was at most 0.5 µg/mL. In addition, the pest or weed control at 50 ppm in experiment [2] fell in the range of 80 to 100%.
For `OC(Cn1cnnn1)(c1ccc(Cl)cc1F)C(F)(F)c1ccc(OCC2CC2)cn1` (centres unmarked) [Compound 54, 2-(4-Chloro-2-fluorophenyl)-1-(5-(cyclopropylmethoxy)pyridin-2-yl)-1,1-difluoro-3-(1H-tetrazol-1-yl)propan-2-ol] the same measures were at most 0.5 µg/mL and 80 to 100%.
For the compound `N#Cc1ccc(C(F)(F)COc2ccc(C(F)(F)C(O)(Cn3cnnn3)c3ccc(F)cc3F)nc2)cc1` (centres unmarked) [Compound 121, 4-(2-((6-(2-(2,4-difluorophenyl)-1,1-difluoro-2-hydroxy-3-(1H-tetrazol-1-yl)propyl)pyridin-3-yl)oxy)-1,1-difluoroethyl)benzonitrile], the MIC in experiment [1] was at most 0.5 µg/mL. The pest or weed control at 50 ppm in experiment [2] lay within 80 to 100%.
As for `OC(Cn1cnnn1)(c1ccc(F)cc1F)C(F)(F)c1ccc(OCc2ccc(C(F)(F)F)cc2)cn1` (centres unmarked) [Compound 22, 2-(2,4-Difluorophenyl)-1,1-difluoro-3-(1H-tetrazol-1-yl)-1-(5-((4-(trifluoromethyl)benzyl)oxy)pyridin-2-yl)propan-2-ol], the MIC in experiment [1] was at most 0.5 µg/mL. For the same compound, the pest or weed control at 50 ppm in experiment [2] lay within 80 to 100%.
As to `N#Cc1ccc(COc2ccc(C(F)(F)C(O)(Cn3cnnn3)c3ccc(Cl)cc3F)nc2)nc1` (centres unmarked) [Compound 61, 6-(((6-(2-(4-Chloro-2-fluorophenyl)-1,1-difluoro-2-hydroxy-3-(1H-tetrazol-1-yl)propyl)pyridin-3-yl)oxy)methyl)nicotinonitrile], in experiment [1], the MIC is at most 0.5 µg/mL. Further, in experiment [2], the pest or weed control at 50 ppm was in the range of 80 to 100%.
For `N#Cc1cc(Oc2ccc(C(F)(F)C(O)(Cn3cnnn3)c3ccc(F)cc3F)nc2)ccn1` (centres unmarked) [Compound 96, 4-((6-(2-(2,4-difluorophenyl)-1,1-difluoro-2-hydroxy-3-(1H-tetrazol-1-yl)propyl)pyridin-3-yl)oxy)picolinonitrile] the same measures were 1.5 to 4 µg/mL (≈ 3.18 to 8.49 µM) and 60 to 79%.
Take `CC(C)COc1ccc(C(F)(F)C(O)(Cn2cnnn2)c2ccc(Cl)cc2F)nc1` (centres unmarked) [Compound 69, 2-(4-Chloro-2-fluorophenyl)-1,1-difluoro-1-(5-isobutoxypyridin-2-yl)-3-(1H-tetrazol-1-yl)propan-2-ol]: the MIC in experiment [1] is at most 0.5 µg/mL. Moreover, the pest or weed control at 50 ppm in experiment [2] is 80 to 100%.
